Test results reported in patent publication US5516789A, “Lipoxygenase and cyclooxygenase inhibiting compounds” (Abbott Laboratories, priority 1995, dated 1996).

How the values were obtained:
[1] = system: LTB4 formation in human whole blood; experiment: Calcium ionophore (A23187)-induced LTB4 biosynthesis in human whole blood; format: cell-based; conditions: human heparinized whole blood; 15 min preincubation at 37° C.; A23187 50.0 μM, 30 min; read-out: IC50, in vitro inhibitory potency against stimulated LTB4 formation in human whole blood
Description: Inhibition of leukotriene biosynthesis was evaluated in an assay, involving calcium ionophore-induced LTB4 biosynthesis in human whole blood. Human heparinized whole blood was preincubated with test compounds or vehicle for 15 min at 37° C. followed by calcium ionophore A23187 challenge (final concentration of 50.0 μM) and the reaction terminated after 30 min by adding two volumes of methanol. The methanol extract was analyzed for LTB4 using a commercially available immunoassay.

[2] = system: biosynthesis of leukotrienes; experiment: Rat peritoneal anaphylaxis model, inhibition of leukotriene biosynthesis in vivo after oral administration; conditions: oral gavage one hour prior to antigen challenge, @ 15 mg/kg
Description: Inhibition of the biosynthesis of leukotrienes in vivo after oral administration of compound was determined using a rat peritoneal anaphylaxis model similar to that described by Young and coworkers (Young, P. R.; Bell, R. L.; Lanai, C.; Summers, J. B.; Brooks, D. W.; Carter, G. W. (1991): Inhibition of leukotriene biosynthesis in the rat peritoneal cavity. Eur. J. Pharmacol 1991, 205, 259-266). In this model rats were injected intraperitoneally (ip) with rabbit antibody to bovine serum albumin (BSA) and three hours later injected ip with BSA to induce an antigen-antibody response. Rats were sacrificed 15 minutes after this challenge and the peritoneal fluids were collected and analyzed for leukotriene levels. Test compounds were administered by gavage one hour prior to the antigen challenge. To measure immunoreactive leukotriene levels in the various lavage fluids, the samples were diluted 1:3 (v/v) with the EIA buffer containing 100 mM phosphate, 1.5 mM sodium azide, 400 mM sodium chloride, 0.1 mM sodium EDTA and 0.1% BSA, pH 7.4. Methanol, at a final concentration of 22%, was included in the assay standards to compensate for the amount in the biological samples. EIA reagents for cysteinyl leukotrienes determination were purchased from, Cayman Chemical Co., Ann Arbor, Mich. The LTE4 tracer was prepared in-house. The immunoassays for LTE4 were then conducted as recommended by the manufacturer with the exception that volumes were adjusted to accommodate automation using a Cetus Propette (Cetus Corp., San Francisco, Calif.). The EIA was conducted in 96 well microtiter plates (Nunc Roskilde, Denmark) and optical density measured using a microplate reader (Vmax, Molecular Devices Corp., Menlo Park, Calif.). Percent inhibition values were determined by comparing the treatment group to the mean of the control group.

LTB4 = experiment: Dog ex vivo A23187-stimulated blood after oral dosing, inhibition of LTB4; format: in vivo; conditions: beagle dog, oral dose of 2 mg/kg, 8 hours after dosing; blood incubated with 50 μM A23187
Excerpt: (§1) Inhibition of both leukotriene formation and prostaglandin formation was also shown in the dog. This was done using the method described by Carter et al. (Carter, G. W., Young, P. R., Albert, D. H., Bouska, J., Dyer, R., Bell, R. L., Summers, J. B. and Brooks, D. W.: J. Pharmacol. Exp. Ther. 256: 929-937, 1991.). Compound was suspended in 0.2% methylcellulose with a Potter-Elvehjem homogenizer equipped with a Teflon-coated pestle and administered orally to beagle dogs (Marshall Farms, North Rose, N.Y.) All animals were fasted overnight before dosing but allowed water ad libitum. Heparinized blood samples were obtained before and at various times after compound administration. Aliquots of blood were incubated at 37° with 50 μM with calcium ionophore, A23187. After 30 minutes, the blood was placed in an ice bath and analyzed for LTB4 and TXB2 as described above.

TXB2 = experiment: Dog ex vivo A23187-stimulated blood after oral dosing, inhibition of TXB2; format: in vivo; conditions: beagle dog, oral dose of 2 mg/kg, 8 hours after dosing; blood incubated with 50 μM A23187
Excerpt: as §1

[3] = system: biosynthesis of prostaglandins; experiment: Rat pleural inflammation model (A23187), inhibition of prostaglandin biosynthesis in vivo; conditions: oral dose of 10 mg/kg, TXB2 by EIA
Description: (§2) Pleural inflammation was induced in male rats following the method of Rao et. al., Life Sci, 1993, 53, 52. Animals were dosed with experimental compounds in 0.2% HPMC one hour prior to the intrapleural injection of the calcium ionophore, A23187. The rats were lightly anesthetized with Penthrane (Abbott Laboratories) and injected intrapleurally with 0.5 ml of 2% ethanol in injectable saline (Abbott Laboratories) containing 20 μg of A23187 (Cal BioChem-Novabiochem). Thirty minutes later the animals were euthanized and the pleural cavities lavaged with ice cold saline. The lavage fluid was then added to ice cold methanol (final methanol concentration 30%) to lyse cells and precipitate protein.
(§3) Cyclooxygenase activity of whole blood was determined by analysis of these samples for TXB2 by EIA (Advanced Magnetics, Cambridge, Mass.).

[4] = system: biosynthesis of leukotrienes; experiment: Rat pleural inflammation model (A23187), inhibition of leukotriene biosynthesis in vivo; conditions: oral dose of 10 mg/kg
Description: as §2, §3

Row | IC50 [1] [µM] | SMILES | % Inhibition (in vivo, leukotriene biosynthesis) [2] [%] | further results
1 | 1.2 | CC(C)Cc1ccc(C(C)C(=O)ON(C(N)=O)C(C)C#Cc2ccc(Oc3ccc(F)cc3)o2)cc1 (centres unmarked) [Example 19, N-[2-(4-(2-methylpropyl)phenyl)propionyloxy]-N-[3-(5-(4-fluorophenoxy)fur-2-yl)-1-methyl-2-propynyl]urea] | 41 | –
2 | 4 | COc1ccc2cc([C@H](C)C(=O)ON(C(N)=O)C(C)c3ccoc3)ccc2c1 (stereo partly drawn) [Example 1, N-[(S)-2-(6-methoxynaphth-2-yl)propionyloxy]-N-[1-(fur-3-yl)ethyl]urea] | – | –
3 | – | COc1ccc2cc([C@H](C)C(=O)ON(C(N)=O)[C@H](C)C#Cc3ccc(Cc4ccc(F)cc4)s3)ccc2c1 [Example 21, N-[(S)-2-(6-methoxynaphth-2-yl)propionyloxy]-N-[3-(5-(4-fluorophenylmethyl)thien-2-yl)-(R)-1-methyl-2-propynyl]urea] | – | inhibition of LTB4 (LTB4): 54%; inhibition of TXB2 (TXB2): 47%; inhibition of the biosynthesis of prostaglandins [3]: 68%; inhibition of the biosynthesis of leukotrienes [4]: 71%
4 | 5.8 | CC(C)Cc1ccc(C(C)C(=O)ON(C(N)=O)C(C)c2cc3ccccc3s2)cc1 (centres unmarked) [Example 3, N-[2-(4-(2-methylpropyl)phenyl)propionyloxy]-N -[1-(benzo[b]thien-2-yl)ethyl]urea] | – | –
5 | 1.3 | COc1ccc2cc([C@H](C)C(=O)ON(C(N)=O)C(C)C#Cc3ccc(Oc4ccc(F)cc4)o3)ccc2c1 (stereo partly drawn) [Example 18, N-[(S)-2-(6-methoxynaphth-2-yl)propionyloxy]-N-[3-(5-(4-fluorophenoxy)fur-2-yl)-1-methyl-2-propynyl]urea] | 40 | –
6 | 9.9 | CC(C)Cc1ccc(C(C)C(=O)ON(C(N)=O)C(C)c2ccoc2)cc1 (centres unmarked) [Example 20, N-[2-(4-(2-methylpropyl)phenyl)propionyloxy]-N-[1-(fur-3-yl)ethyl]urea] | 43 | –

Row | SMILES | IC50 [1] [µM] | % Inhibition (in vivo, leukotriene biosynthesis) [2] [%] | further results
7 | CC(=O)Oc1ccccc1C(=O)ON(C(N)=O)C(C)C#Cc1ccc(Oc2ccc(F)cc2)o1 (centres unmarked) [Example 37, N-[2-(acetoxybenzoyl)oxy]-N-[3-(5-(4-fluorophenoxy)fur-2-yl)-1-methyl-2-propynyl]urea] | 0.16 | – | –
8 | COc1ccc2c(c1)c(CC(=O)ON(C(N)=O)C(C)c1cc3ccccc3s1)c(C)n2C(=O)c1ccc(Cl)cc1 (centres unmarked) [Example 4, N-[2-(N-(4-chlorobenzoyl)-5-methoxy-2-methyl-[1H]-indol-3-yl)acetoxy]-N-[1-(benzo[b]thien-2-yl)ethyl] urea] | 1.8 | – | –
